Reference: patent publication EP2036556A1, “Piperidone derivatives and medical uses thereof” (Heinrich-Pette-Institut, priority 2007, dated 2009)
Read-outs that look alike come from different tables or passages of the source.

Legend:
[1] = system: macrophage cell line J774.1; assay: Macrophage assay (Alamar Blue cytotoxicity); assay type: cell-based
Procedure: The macrophage cell line J774.1 was maintained in complete Click RPMI medium. For the experimental procedures cells were detached from the flasks with a rubber police, washed twice with PBS and suspended at 2 x 10^6 cells mL^-1 in complete Click RPMI medium. […] Following the addition of 20 µl of Alamar Blue, the plates were further incubated at similar conditions. The plates were then read 24 and 48 h later. Control experiments to examine the effect of cell density, incubation time and DMSO concentration were performed. Absorbance in the absence of compounds was set as 100 % of growth control.

[2] = system: P. falciparum; conditions: cited from earlier work
[3] = system: T. brucei brucei laboratory strain TC 221; assay: Trypanosome assay (in vitro cytotoxicity, Alamar Blue); assay type: cell-based, Trypanosoma brucei brucei; conditions: for activity against trypanosomes (in words): statement of the discussion
Procedure: Parasite culture: Trypomastigote forms of T. brucei brucei laboratory strain TC 221 were cultured in Baltz medium according to standard conditions.^36 In vitro cytotoxicity assays: The test compounds were dissolved in DMSO or 0.1 M NaOH. A defined number of parasites (10^4 trypanosomes per mL) were exposed in test chambers of 96-well plates to various concentrations of the test substances in a final volume of 200 µl. Positive (trypanosomes in culture medium) and negative controls (test substance without trypanosomes) were run with each plate. The plates were then incubated at 37°C in an atmosphere of 5 % CO2 for a total time period of 72 h. […] The effect of test substances was quantified in ED50 values by linear interpolation^18 of three different measurements. The activity of the test substances was measured by light absorption in an MR 700 Microplate Reader at a wavelength of 550 nm with a reference wave length of 630 nm, using the Alamar Blue®.

[4] = system: rodent malaria model; conditions: cited from earlier work
[5] = Trypanosoma brucei, reference substances, for comparison (title of Table 1), read-out: ED50 (T. brucei brucei)
[6] = Mus musculus, J774.1 macrophages, after 48h, read-out: ED50 [µM] Macrophage after 48h
[7] = Trypanosoma brucei, strain TC 221, 10^4 trypanosomes per mL, incubated 72 h, reading at 48 h, Alamar Blue, read-out: ED50 [µM] T. brucei brucei
[8] = J774.1 macrophages, after 48h, read-out: ED50 [µM] Macrophage after 48h
[9] = strain TC 221, 10^4 trypanosomes per mL, incubated 72 h, reading at 48 h, Alamar Blue, read-out: ED50 [µM] T. brucei brucei
[10] = reference substances, for comparison (title of Table 1), read-out: ED50 (T. brucei brucei)

Structure (SMILES)	EC50 [1, 6]	EC50 [3, 7]	further results
C[C@@H]1[C@H](O)[C@@H](C)/C=C/C=C/C=C/C=C/C=C/C=C/C=C/[C@H](O[C@@H]2O[C@H](C)[C@@H](O)[C@H](N)[C@@H]2O)C[C@@H]2O[C@](O)(C[C@@H](O)C[C@@H](O)[C@H](O)CC[C@@H](O)C[C@@H](O)CC(=O)O[C@H]1C)C[C@H](O)[C@H]2C(=O)O [Amphotericin B, reference compound]	–	–	IC50 ([1]; reference substance, for comparison, read-out: IC50 (J774.1 Macrophages)): 68.6 ± 16.5 µM
Cc1cc(C2CCCCC2)n(O)c(=O)c1 [Ciclopiroxolamine, reference compound]	–	–	IC50 ([2]; chloroquine sensitive (CQS) NF54 P. falciparum strain, read-out: IC50 in vitro proliferation): 8.2 µM; EC50 ([1]; Mus musculus, J774.1, reference substance, for comparison, 48 h, read-out: ED50 (macrophages, 48 h)): 4.62 ± 0.97 µM; EC50 [3, 5]: 0.62 ± 0.22 µM; efficacy in vivo ([4]; rodent malaria model): ineffective in vivo
COC(=O)C1C(=O)C(C(=O)OC)[C@H](c2ccccn2)N[C@@H]1c1ccccn1 (stereo partly drawn) [Compound 1, Dimethyl (2R,6S)-4-oxo-2,6-di(pyridin-2-yl)piperidine-3,5-dicarboxylate]	> 100 µM	28.1 ± 1.52 µM	–
C=CCN1[C@H](c2ccccn2)C(C(=O)OC)C(=O)C(C(=O)OC)[C@@H]1c1ccccn1 (stereo partly drawn) [Compound 2, Dimethyl (2R,6S)-1-allyl-4-oxo-2,6-di(pyridin-2-yl)piperidine-3,5-dicarboxylate]	> 100 µM	26.5 ± 7.64 µM	–
COC(=O)C1C(=O)C(C(=O)OC)[C@H](c2ccccn2)N(CCO)[C@@H]1c1ccccn1 (stereo partly drawn) [Compound 3, Dimethyl (2R,6S)-1-(2-hydroxyethyl)-4-oxo-2,6-di(pyridin-2-yl)piperidine-3,5-dicarboxylate]	31.15 ± 0.14 µM	22.8 ± 5.57 µM	–
COC(=O)C1C(=O)C(C(=O)OC)[C@H](c2ccccn2)N(CC(C)O)[C@@H]1c1ccccn1 (stereo partly drawn) [Compound 4, Dimethyl (2R,6S)-1-(2-hydroxypropyl)-4-oxo-2,6-di(pyridin-2-yl)piperidine-3,5-dicarboxylate]	32 ± 0.63 µM	18.3 ± 2.59 µM	–
COC(=O)C1C(=O)C(C(=O)OC)[C@H](c2ccccn2)N(CCOCCO)[C@@H]1c1ccccn1 (stereo partly drawn) [Compound 5, Dimethyl (2R,6S)-1-[2-(2-hydroxyethoxy)ethyl]-4-oxo-2,6-di(pyridin-2-yl)piperidine-3,5-dicarboxylate]	38.5 ± 6.17 µM	24.1 ± 4.27 µM	–
COC(=O)C1C(=O)C(C(=O)OC)[C@H](c2ccccn2)N(CCCC(=O)O)[C@@H]1c1ccccn1 (stereo partly drawn) [Compound 6, 4-[(2R,6S)-3,5-bis(methoxycarbonyl)-4-oxo-2,6-di(pyridin-2-yl)piperldin-1-yl]butanoic acid]	–	–	EC50 [1, 8]: 46 ± 5.92 µM; EC50 [3, 9]: 19.3 ± 2.28 µM
COC(=O)C1C(=O)C(C(=O)OC)[C@H](c2ccccn2)N(CCCCCCCC(=O)O)[C@@H]1c1ccccn1 (stereo partly drawn) [Compound 7, 8-[(2R,6S)-3,5-bis(methoxycarbonyl)-4-oxo-2,6-di(pyridin-2-yl)piperidin-1-yl]octanoic acid]	33.8 ± 2.81 µM	24 ± 4.48 µM	–
COC(=O)C1C(=O)C(C(=O)OC)[C@H](c2ccccn2)N(Cc2ccccn2)[C@@H]1c1ccccn1 (stereo partly drawn) [Compound 8, Dimethyl (2R,6S)-4-oxo-2,6-di(pyridine-2-yl)-1-(pyridine-2-yl-methyl)-piperidine-3,5-diearboxylate]	–	–	EC50 [1, 8]: 29.9 ± 2.32 µM; EC50 [3, 9]: 4.62 ± 1.39 µM
COC(=O)C1C(=O)C(C(=O)OC)[C@H](c2ccccn2)N(Cc2ccccc2)[C@@H]1c1ccccn1 (stereo partly drawn) [Compound 9, Dimethyl (2R,6S)-1-benzyl-4-oxo-2,6-di(pyridin-2-yl)piperidine-3,5-dicarboxylate]	34 ± 1.56 µM	11.1 ± 1.91 µM	–
C=CCN1[C@@H](c2ccc([N+](=O)[O-])cc2)C(C(=O)OC)=C(O)C(C(=O)OC)[C@@H]1c1ccc([N+](=O)[O-])cc1 (stereo partly drawn) [Compound 10, Dimethyl (2R,6S)-1-allyl-4-hydroxy-2,6-bis(4-nitrophenyl)-1,2,3,6-tetrahydropyridine-3,5-dicarboxylate]	50.3 ± 11.7 µM	2.41 ± 0.39 µM	–
COC(=O)C1C(=O)C(C(=O)OC)[C@H](c2cccc([N+](=O)[O-])c2)N(Cc2ccc(Cl)cc2)[C@@H]1c1cccc([N+](=O)[O-])c1 (stereo partly drawn) [Compound 14, Dimethyl (2R,6S)-1-(4-chlorobenzyl)-2,6-bis(3-nitrophenyl)-4-oxopiperidine-3,5-dicarboxylate]	46.6 ± 9.86 µM	10.6 ± 2.83 µM	–
COC(=O)C1C(=O)C(C(=O)OC)[C@H](c2cccc([N+](=O)[O-])c2)N(Cc2ccc(OC)cc2)[C@@H]1c1cccc([N+](=O)[O-])c1 (stereo partly drawn) [Compound 15, Dimethyl (2R,6S)-1-(4-methoxybenzyl)-2,6-bis(3-nitrophenyl)-4-oxopiperidine-3,5-dicarboxylate]	> 100 µM	3.93 ± 1.1 µM	–
COC(=O)C1C(=O)C(C(=O)OC)[C@H](c2cccc([N+](=O)[O-])c2)N(Cc2ccc(C)cc2)[C@@H]1c1cccc([N+](=O)[O-])c1 (stereo partly drawn) [Compound 16, Dimethyl (2R,6S)-1-(4-methylbenzyl)-2,6-bis(3-nitrophenyl)-4-oxopiperidine 3,5-dicarboxylate]	49.8 ± 16.8 µM	2.66 ± 0.49 µM	–
COC(=O)C1C(=O)C(C(=O)OC)[C@H](c2cccc([N+](=O)[O-])c2)N(Cc2ccccc2)[C@@H]1c1cccc([N+](=O)[O-])c1 (stereo partly drawn) [Compound 17, Dimethyl (2R,6S)-1-benzyl-2,6-bis(3-nitrophenyl)-4-oxopiperidine-3,5-dicarboxylate]	> 100 µM	2.49 ± 0.79 µM	–
C=CCN1[C@H](c2ccccc2)C(C(=O)OC)C(=O)C(C(=O)OC)[C@@H]1c1ccccc1 (stereo partly drawn) [Compound 18, Dimethyl (2R,6S)-1-allyl-4-oxo-2,6-diphenylpiperidine-3,5-dicarboxylate]	> 100 µM	4.86 ± 0.63 µM	–
COC(=O)C1=C(O)C[C@@H](c2ccccn2)N(Cc2ccccc2)[C@H]1c1ccccn1 [Compound 19, Methyl (2'R,6'S)-1'-benzyl-4'-hydroxy-1',2',5',6'-tetrahydro-2,2';6',2''-terpyridine-3'-carboxylate]	33.2 ± 0.69 µM	1.37 ± 0.02 µM	–
COC(=O)C1=C(O)C[C@@H](c2ccccn2)N(Cc2ccc(C)cc2)[C@H]1c1ccccn1 [Compound 20, Methyl (2'R,6'S)-4'-hydroxy-1'-(4-methylbenzyl)-1',2',5',6'-tetrahydro-2,2';6',2''-terpyridine-3'-carboxylate]	34.9 ± 0.45 µM	0.47 ± 0.17 µM	–
COC(=O)C1=C(O)C[C@@H](c2ccccn2)N(Cc2ccc(OC)cc2)[C@H]1c1ccccn1 [Compound 22, Methyl (2'R,6'S)-4'-hydroxy-1'-(4-methoxybenzyl)-1',2',5',6'-tetrahydro-2,2';6',2''-terpyridine-3'-carboxylate]	29.9 ± 0.33 µM	0.43 ± 0.17 µM	–
COC(=O)C1=C(O)C[C@@H](c2ccccn2)N(Cc2cccc(OC)c2)[C@H]1c1ccccn1 [Compound 23, Methyl (2'R,6'S)-4'-hydroxy-1'-(3-methoxybenzyl)-1',2',5',6'-tetrahydro-2,2';6',2''-terpyridine-3'-carboxylate]	> 100 µM	> 100 µM	–
ON=C1CCN(CCCc2ccccc2)CC1 [Compound 48, 1-(3-Phenylpropyl)-4-piperidine oxime]	–	–	activity against trypanosomes (in words) [3]: neither the oximes 48 and 52 nor the oxime ether 49 are active against trypanosomes
CC(CN1CCC(=NOCc2c(Cl)cccc2Cl)CC1)c1ccccc1 (centres unmarked) [Compound 49, 1-(2-Phenylpropyl)-4-oxo-piperidine O-(2,6-dichloro-benzyl)-oxime]	> 100 µM	> 100 µM	activity against trypanosomes (in words) [3]: neither the oximes 48 and 52 nor the oxime ether 49 are active against trypanosomes
ON=CC1CCN(CCCc2ccccc2)CC1 [Compound 52, 1-1-(3-Phenyl-propyl)-piperidine-4-carbaldehyde oxime]	–	–	EC50 [1, 8]: > 100 µM; activity against trypanosomes (in words) [3]: neither the oximes 48 and 52 nor the oxime ether 49 are active against trypanosomes; EC50 [3, 9]: > 100 µM
NCCCC(N)(C(=O)O)C(F)F (centres unmarked) [Eflornitine, reference compound]	–	–	EC50 [3, 10]: 22.9 µM
N=C(N)c1ccc(OCCCCCOc2ccc(C(=N)N)cc2)cc1 [Pentamidine diisothionate, reference compound]	–	–	EC50 [3, 10]: 0.0027 µM
Cc1ccc(C(=O)Nc2ccc(S(=O)(=O)O)c3cc(S(=O)(=O)O)cc(S(=O)(=O)O)c23)cc1NC(=O)c1cccc(NC(=O)Nc2cccc(C(=O)Nc3cc(C(=O)Nc4ccc(S(=O)(=O)O)c5cc(S(=O)(=O)O)cc(S(=O)(=O)O)c45)ccc3C)c2)c1 [Suramine, reference compound]	–	–	EC50 [3, 5]: 0.3 µM
N[C@@H](Cn1ccc(=O)c(O)c1)C(=O)O [mimosine, L-mimosine]	–	–	IC50 ([2]; chloroquine resistant (CQR) strain, read-out: IC50 antiplasmodial effect): 39 µM; IC50 ([2]; chloroquine susceptible (CQS) strain, read-out: IC50 antiplasmodial effect): 32 µM; toxicity in vivo ([4]; in vivo): toxic
